Key:
[1] = Drug recovery in IV dosed BDC rat feces; assay type: ADME, organism-based; details: faeces, read-out: Drug recovery
[2] = Intestinal excretion in iv dosed dog; assay type: ADME, organism-based, Canis lupus familiaris, Intestine; details: in vivo, read-out: Drug excretion
[3] = Total systemic clearance in rat; assay type: ADME; details: in vivo
[4] = Intestinal excretion in iv dosed rat; assay type: ADME, organism-based, Intestine; details: in vivo, read-out: Drug excretion
[5] = Unbound fraction in human plasma; assay type: ADME, cell-free
[6] = Volume of distribution in human
[7] = Drug excretion in BDC dog urine; assay type: ADME, tissue-based, Canis lupus familiaris
[8] = Drug elimination in human urine; assay type: ADME, tissue-based; details: read-out: Drug excretion
[9] = Elimination half life in human
[10] = Drug excretion in rat bile; assay type: ADME, tissue-based; details: read-out: Drug excretion
[11] = Intestinal clearance in dog; assay type: ADME, Canis lupus familiaris; details: in vivo
[12] = Total plasma clearance in human assessed as hepatic blood flow; assay type: ADME, cell-free
[13] = Intestinal clearance in rat; assay type: ADME; details: in vivo
[14] = Renal excretion in rat; assay type: ADME, tissue-based, Kidney; details: in vivo, read-out: Drug excretion (converted)
[15] = Renal clearance in dog; assay type: ADME, tissue-based, Canis lupus familiaris, Kidney; details: in vivo
[16] = Tubular reabsorption in dog; assay type: ADME, Canis lupus familiaris
[17] = Oral bioavailability in human; assay type: ADME, organism-based; details: in vivo
[18] = Intestinal clearance in human; assay type: ADME
[19] = Clearance in rat urine; assay type: ADME, tissue-based
[20] = Total plasma clearance in dog assessed as hepatic blood flow; assay type: ADME, cell-free, Canis lupus familiaris
[21] = Total plasma clearance in rat assessed as hepatic blood flow; assay type: ADME, cell-free
[22] = in vivo; details: rat, po
[23] = in vivo; details: rat
[24] = Clearance in dog bile; assay type: ADME, tissue-based, Canis lupus familiaris; details: in vivo
[25] = Total systemic clearance in dog; assay type: ADME, Canis lupus familiaris; details: in vivo

Compound COc1ccc(-n2nc(C(N)=O)c3c2C(=O)N(c2ccc(N4CCCC[14C]4=O)cc2)CC3)cc1 has a dose excreted [1] of 20%, a dose excreted [2] of 20% and a CL [3] of 20%. For the same compound, the dose excreted [4] was 20%.

CC(C)(O)[C@H](F)CN1Cc2cc(NC(=O)c3cnn4cccnc34)c(N3CCOCC3)cc2C1=O gave a Fu [5] of 0.01.

COc1ccc(-n2nc(C(N)=O)c3c2C(=O)N(c2ccc(N4CCCCC4=O)cc2)CC3)cc1 [APIXABAN] showed a Vd [6] of 0.3 L/kg, a dose excreted [7] of 21% and a dose excreted [8] of 27%. For the same compound, the half-life [9] was 12 h, the dose excreted [10] was 10% and the CL [11] was greater than 42%. For the same compound, the QH [12] was less than 5%, the CL [13] was greater than 20% and the CL renal [14] was 0.217 mL/min/kg. It also gave a CL renal [15] of 0.333 mL/min/kg, a Drug absorption [16] of 0.483 mL/min/kg and a fraction unbound [5] of 0.07. It also gave a bioavailability [17] of 49%, a CL [18] greater than 27% and a CL renal [19] of 11.8 mL/min/kg. The QH [20] was less than 5%, the QH [21] was less than 5% and the Tmax [22] was 2 h.

CCOc1ccc(Cc2cc([C@@H]3O[C@H](CO)[C@@H](O)[C@H](O)[C@H]3O)ccc2Cl)cc1 [DAPAGLIFLOZIN] gave a CL renal [23] of 0.08 mL/min/kg and a fraction unbound [5] of 0.085.

With C[C@H]1O[C@@H](O[C@H]2[C@@H](O)C[C@H](O[C@H]3[C@@H](O)C[C@H](O[C@H]4CC[C@@]5(C)[C@H](CC[C@@H]6[C@@H]5C[C@@H](O)[C@]5(C)[C@@H](C7=CC(=O)OC7)CC[C@]65O)C4)O[C@@H]3C)O[C@@H]2C)C[C@H](O)[C@@H]1O [DIGOXIN] the Fu [5] was 0.2.

Compound O=C1CN(/N=C/c2ccc([N+](=O)[O-])o2)C(=O)N1 [NITROFURANTOIN] has a fraction unbound [5] of 0.4.

Work on CS(=O)(=O)c1ccc(C(=O)Nc2ccc(Cl)c(-c3ccccn3)c2)c(Cl)c1 [VISMODEGIB] yielded a CL [24] of 0.04 mL/min/kg, a CL [25] of 19% and a fraction unbound [5] of 0.01.

— ChEMBL document CHEMBL5226306, “Intestinal Excretion, Intestinal Recirculation, and Renal Tubule Reabsorption Are Underappreciated Mechanisms That Drive the Distribution and Pharmacokinetic Behavior of Small Molecule Drugs” (J Med Chem, 2021)
